The target in series [1] is T1, Macrophage migration inhibitory factor (Homo sapiens) (UniProt P14174).
T1 sequence (whole entry): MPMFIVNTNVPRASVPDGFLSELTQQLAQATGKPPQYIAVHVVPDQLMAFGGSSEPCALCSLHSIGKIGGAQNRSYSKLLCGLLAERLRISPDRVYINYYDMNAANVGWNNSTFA
The series is described as follows: Inhibition of human purified MIF tautomerase activity at 100 uM after 30 mins.

The subject of series [2] is PBMC. Kind of series: Antiinflammatory activity in human PBMC assessed as inhibition of MIF-induced TNFalpha production at 100 uM after 21 hrs by ELISA. It counts as functional.
Series [3] relates to PBMC. The series is described as follows: Antiinflammatory activity in human PBMC assessed as inhibition of MIF-induced IL1-beta production at 100 uM after 21 hrs by ELISA. It is filed as functional.
Series [4] has as its system PBMC. The series is described as follows: Antiinflammatory activity in human PBMC assessed as inhibition of MIF-induced IL-6 production at 100 uM after 21 hrs by ELISA. It counts as functional. For orientation: In an ELISA, binding on a coated surface is turned into a signal by an enzyme label.
The target in series [5] is T1, Macrophage migration inhibitory factor (Homo sapiens). Kind of series: Inhibition of MIF in human PBMC assessed as MIF secretion at 100 uM after 5 hrs by ELISA.
Series [6] is described as follows: Cytotoxicity against human PBMC assessed as cell viability measured during cytokines production assay at 100 uM after 21 hrs by MTS assay. It is filed as cell-based. The note with it: PBMC (peripheral blood mononuclear cells). A general note: Formazan colour is commonly taken as a measure of viable cells.
Series [7] is described as follows: Cytotoxicity against human PBMC assessed as cell viability measured during MIF secretion assay at 100 uM after 21 hrs by MTS assay. It counts as cell-based. The conditions noted are these: PBMC (peripheral blood mononuclear cells).
Series [8] has as its target T1, Macrophage migration inhibitory factor (Homo sapiens). The series is described as follows: Inhibition of human purified MIF tautomerase activity at 10 uM after 30 mins.
The test system of series [9] is PBMC. Kind of series: Antiinflammatory activity in human PBMC assessed as inhibition of MIF-induced IL-6 production at 30 uM after 21 hrs by ELISA. It counts as functional.
Series [10] deals with T1, Macrophage migration inhibitory factor (Homo sapiens). The series is described as follows: Inhibition of MIF in human PBMC assessed as MIF secretion at 10 uM after 5 hrs by ELISA.

As to `O=C1CCCN1C1CC(c2cn(-c3cccc(C(F)(F)F)c3)c3ccccc23)=NO1` (stereo not given), the inhibition – broadly, the drop in the measured response relative to a control, in per cent – in series [1] turned out to be 10%; in series [5] it was 0%; in series [8] it was 1%; in [10] it was 0%. Besides, the values for the inhibition at 100 µM in the series with PBMC [2], in the series with PBMC [3] and with PBMC [4] were 68%, 68% and 52%, respectively. Also, the cytotoxicity at 21 h, 100 µM is 16% in series [6] and 15% in series [7]. In addition, the inhibition at 30 µM in the series on PBMC [9] amounted to 25%.

As to `COC(=O)CC1(C(=O)OC)CC(c2cn(-c3cccc(C(F)(F)F)c3)c3ccccc23)=NO1` (stereo not given), the inhibition in series [1] was 76%; in series [5], 10%; in [8], 6%; in series [10], 0%. The inhibition at 100 µM is 0% in the series on PBMC [2], 23% in the series on PBMC [3] and 4% with PBMC [4]. For the same compound, the cytotoxicity at 21 h, 100 µM stood at 2% in series [6] and 0% in series [7]. The inhibition at 30 µM in the series with PBMC [9] is 0%.

`O=C1c2ccccc2C(=O)N1C1CC(c2ccoc2)=NO1` (stereo not given): the inhibition was found to be 0% in [1], 83% in [5], 0% in series [8] and 49% in series [10]. Also, the inhibition at 100 µM with PBMC [2] amounted to 26%; in the series on PBMC [3] it was 12%; with PBMC [4] it was 13%. Further, the cytotoxicity at 21 h, 100 µM in [6] is 12%; in series [7], 0%. The inhibition at 30 µM in the series on PBMC [9] came to 9%.

In the case of `CC1(C(=O)O)CC(c2ccoc2)=NO1` (stereo not given), the inhibition stood at 29% in [1], 21% in [5], 18% in series [8] and 0% in [10]. For the same compound, the inhibition at 100 µM in the series with PBMC [2] came out at 32%; with PBMC [3], 15%; with PBMC [4], 7%. The cytotoxicity at 21 h, 100 µM in series [6] came to 10%; in series [7], 2%. Besides, the inhibition at 30 µM in the series on PBMC [9] is 14%.

Consider `O=C1CCCN1C1CC(c2ccoc2)=NO1` (stereo not given), for which the inhibition in [1] amounted to 18%; in series [5] it was 36%; in series [8], 0%; in series [10] it was 0%. In addition, the inhibition at 100 µM worked out at 28% in the series with PBMC [2], 22% in the series on PBMC [3] and 49% with PBMC [4]. In addition, the cytotoxicity at 21 h, 100 µM in series [6] was 5%; in [7] it was 0%. Also, in the series with PBMC [9], the inhibition at 30 µM is 43%.

As for `COC(=O)C1(C)CC(c2ccoc2)=NO1` (stereo not given), the inhibition came to 22% in [1], 0% in [5], 22% in series [8] and 0% in series [10]. The inhibition at 100 µM with PBMC [2] stood at 30%; with PBMC [3], 39%; in the series with PBMC [4], 11%. Further, the cytotoxicity at 21 h, 100 µM in [6] came out at 1%; in series [7], 4%. Also, the inhibition at 30 µM with PBMC [9] was found to be 0%.

On to `c1cc(C2=NOC(C3CCCCC3)C2)co1` (stereo not given), for which the inhibition in [1] turned out to be 54%; in [5] it was 35%; in [8], 23%; in [10] it was 13%. The inhibition at 100 µM in the series with PBMC [2] stood at 0%; in the series on PBMC [3] it was 15%; with PBMC [4], 0%. Besides, the cytotoxicity at 21 h, 100 µM was found to be 1% in series [6] and 6% in series [7]. Also, the inhibition at 30 µM in the series with PBMC [9] was 0%.

With `Fc1ccc(C2CC(c3ccoc3)=NO2)cc1` (stereo not given), the inhibition in [1] came to 41%; in [5] it was 51%; in series [8] it was 0%; in series [10], 0%. Further, the inhibition at 100 µM in the series on PBMC [2] was 0%; in the series with PBMC [3], 47%; in the series on PBMC [4] it was 15%. In addition, the cytotoxicity at 21 h, 100 µM in series [6] was 4%; in series [7], 0%. Also, in the series with PBMC [9], the inhibition at 30 µM amounted to 0%.

As to `FC(F)(F)c1cccc(-n2cc(C3=NOC(Cn4ccc5ccccc54)C3)c3ccccc32)c1` (stereo not given), the inhibition in series [1] turned out to be 100%; in [5] it was 8%; in series [8] it was 18%; in series [10], 0%. In addition, the inhibition at 100 µM in the series on PBMC [2] was found to be 30%; in the series on PBMC [3], 44%; with PBMC [4], 17%. In addition, the cytotoxicity at 21 h, 100 µM in series [6] was 16%; in series [7] it was 0%. Further, the inhibition at 30 µM in the series with PBMC [9] was 15%.

`COC(=O)CC1CC(c2ccc(O)cc2)=NO1` (stereo not given): the inhibition in series [1] worked out at 59%; in series [5] it was 87%; in [8] it was 8%; in series [10], 35%. The inhibition at 100 µM amounted to 35% in the series on PBMC [2], 34% in the series on PBMC [3] and 12% in the series on PBMC [4]. Also, the cytotoxicity at 21 h, 100 µM in [6] was 10%; in series [7] it was 8%. In addition, the inhibition at 30 µM with PBMC [9] was 11%.

In the case of `CC(C)(C)C(=O)OC1CC(c2cn(-c3cccc(C(F)(F)F)c3)c3ccccc23)=NO1` (stereo not given), the inhibition worked out at 100% in series [1], 5% in [5], 15% in series [8] and 0% in series [10]. The values for the inhibition at 100 µM in the series with PBMC [2], with PBMC [3] and in the series with PBMC [4] were 0%, 15% and 12%, respectively. The cytotoxicity at 21 h, 100 µM in series [6] was 15%; in series [7], 0%. Besides, in the series on PBMC [9], the inhibition at 30 µM was 10%.

For the compound `CC(C)(C)C(=O)OC1CC(c2ccoc2)=NO1` (stereo not given), the inhibition was 30% in [1], 86% in series [5], 13% in series [8] and 40% in series [10]. The results for the inhibition at 100 µM in the series with PBMC [2], with PBMC [3] and with PBMC [4] were 0%, 6% and 1%, respectively. Further, the cytotoxicity at 21 h, 100 µM in [6] stood at 8%; in [7] it was 0%. Also, the inhibition at 30 µM in the series with PBMC [9] was 3%.

In the case of `FC(F)(F)c1ccc(C2CC(c3ccoc3)=NO2)cc1` (stereo not given), the inhibition was found to be 41% in series [1], 60% in series [5], 15% in [8] and 31% in [10]. The inhibition at 100 µM turned out to be 76% in the series with PBMC [2], 67% in the series on PBMC [3] and 50% in the series on PBMC [4]. Further, the results for the cytotoxicity at 21 h, 100 µM in series [6] and in [7] were 17% and 9%, respectively. The inhibition at 30 µM in the series on PBMC [9] came out at 23%.

For the compound `OCCC1CC(c2cn(-c3cccc(C(F)(F)F)c3)c3ccccc23)=NO1` (stereo not given), the inhibition came to 91% in series [1], 0% in series [5], 0% in [8] and 0% in series [10]. The inhibition at 100 µM with PBMC [2] was determined as 88%; in the series on PBMC [3], 88%; in the series on PBMC [4] it was 84%. The cytotoxicity at 21 h, 100 µM in [6] was 9%; in series [7] it was 0%. The inhibition at 30 µM in the series on PBMC [9] came out at 60%.
